According to PubChem BioAssay (NCI):
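Interpolation was linear, between the two tested concentrations surrounding the appropriate level; five concentrations were tested over 48 hours in 96-well plates. GI50: concentration for 50% inhibition of growth. TGI denotes the concentration required for complete inhibition of growth.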

Assays:
Test in all cases: inhibition of tumour cell growth, NCI panel, 48 h
[1] = tested on: A549 NSCLC
[2] = tested on: DMS 114 small cell lung
[3] = tested on: DMS 273 small cell lung
[4] = tested on: LXFL 529 NSCLC
[5] = tested on: NCI-H226 lung
[6] = tested on: SF-268 CNS
[7] = tested on: SF-295 CNS
[8] = tested on: SF-539 CNS
[9] = tested on: SK-OV-3 ovarian
[10] = tested on: U251 CNS
[11] = tested on: MCF7 breast

SMILES | TGI [1] [µM] | TGI [2] [µM] | TGI [3] [µM] | TGI [4] [µM] | TGI [5] [µM] | TGI [6] [µM] | TGI [7] [µM] | TGI [8] [µM] | TGI [9] [µM] | TGI [10] [µM] | TGI [11] [µM] | GI50 [1] [µM] | GI50 [11] [µM] | GI50 [5] [µM] | GI50 [6] [µM] | GI50 [7] [µM] | GI50 [8] [µM] | GI50 [9] [µM] | GI50 [10] [µM]
CC12N=NN(c3ccc([N+](=O)[O-])cc3)C1(O)c1ccccc1C2=O (centres undefined) | > 100 | > 100 | > 100 | > 100 | > 100 | > 100 | > 100 | > 100 | > 100 | > 100 | – | – | – | – | – | – | – | – | –
CC(=O)Nc1ccc(C(=O)NN2C(=O)C(Cl)C2c2ccc([N+](=O)[O-])cc2)cc1 (centres undefined) | > 100 | – | > 100 | > 100 | > 100 | > 100 | > 100 | > 100 | > 100 | > 100 | – | – | – | – | – | – | – | – | –
Nc1cccc2c1C(=O)c1cccc(N)c1C2=O | > 100 | – | > 100 | > 100 | > 100 | > 100 | – | > 100 | > 100 | > 100 | – | – | – | – | – | – | – | – | –
Cc1ccc(C(C)(C)C[P+](C)(c2ccccc2)c2ccccc2)cc1 | > 100 | 35.6 | 23.8 | – | > 85.3 | > 100 | > 85.2 | > 100 | 64.2 | > 100 | > 81.2 | – | – | – | – | – | – | – | –
COC(=O)C1CCC(=O)N1C(=O)Cc1ccc(OC)cc1 (centres undefined) | > 100 | > 100 | > 100 | > 100 | > 100 | > 100 | > 100 | – | > 100 | > 100 | – | – | – | – | – | – | – | – | –
OCC1OC(n2cnc3cncnc32)C(O)C1O (centres undefined) | 5.8 | 2.57 | 2.38 | – | 3.33 | 2.98 | 8.32 | 2.94 | 5.16 | 4.58 | 2.15 | – | – | – | – | – | – | – | –
CC(C)=CCC/C(C)=C/CC/C(C)=C/Cc1c(O)c2ccccc2oc1=O | > 100 | > 100 | > 100 | > 100 | > 100 | > 100 | > 100 | > 100 | > 100 | > 100 | – | – | – | – | – | – | – | – | –
O=Cc1ccccc1OCCOc1cc(OCCOc2ccccc2C=O)c(OCCOc2ccccc2C=O)cc1OCCOc1ccccc1C=O | > 100 | > 100 | > 100 | > 100 | > 100 | > 100 | – | > 79 | > 100 | > 50.1 | – | – | – | – | – | – | – | – | –
COc1cc(/C=C/C(=O)c2c(=O)o[nH][n+]2-c2ccccc2)ccc1[O-] | 14.8 | – | – | – | > 24.1 | 15.2 | 31.6 | 5.92 | 16.1 | 11 | 13.8 | – | – | – | – | – | – | – | –
N#Cc1nc(CCCCCN2C(=O)c3ccccc3C2=O)oc1N | > 100 | – | – | – | > 100 | > 100 | > 100 | > 100 | > 100 | > 100 | > 100 | – | – | – | – | – | – | – | –
Cc1ccc(C(=O)O)c(CC2Cc3c(C)cccc3C2=O)c1 (centres undefined) | > 100 | – | – | – | > 100 | > 100 | > 100 | > 100 | > 100 | > 100 | > 100 | – | – | – | – | – | – | – | –
CCOC(=O)c1c(CN2CCNCC2)nc2ccccc2c1-c1ccccc1 | 33.1 | – | – | – | 37.9 | 27.8 | 29 | 34.8 | 30.1 | 27.5 | 28.1 | – | – | – | – | – | – | – | –
O=C1C=CC(=O)C(CNc2ccc(C(=O)OC34CC5CC(CC(C5)C3)C4)cc2)=C1 | 56.9 | – | – | – | 4.47 | 17.3 | 39.2 | 8.89 | > 57.4 | 16.4 | 27.5 | – | – | – | – | – | – | – | –
COC(=O)[C@H]1[C@@H](C(C)C)O[C@@H](C(C)C)O[C@H]1C(F)(F)F | > 100 | – | – | – | > 100 | > 100 | > 100 | > 100 | > 100 | > 100 | > 100 | – | – | – | – | – | – | – | –
Cc1cc(/C=C\c2ccc3ccccc3[n+]2C)c(O)c2ncccc12 | 13.6 | – | – | – | 3.17 | 8.63 | 1.44 | 0.909 | 4.84 | > 100 | – | 0.564 | 0.283 | 1.24 | 0.486 | 0.0827 | 0.202 | 1.68 | 0.537
Cc1ccccc1-n1c(C)nc2c1C(=O)c1ccccc1C2=O | > 100 | 87 | > 100 | – | > 100 | > 100 | > 100 | > 100 | – | > 100 | – | – | – | – | – | – | – | – | –
CN(C)CCNC(=O)c1ccc(NCCCN(C)CCCNc2ccc3c(=O)n(CCN(C)C)c(=O)n4c5ccccc5c(=O)c2c34)c2c(=O)c3ccccc3[nH]c12 | 0.164 | – | – | – | 0.665 | 0.326 | 1.06 | 2.46 | 0.411 | 0.257 | 0.344 | – | – | – | – | – | – | – | –
